Reference: patent US20250288554A1, “PROPHYLACTIC OR THERAPEUTIC AGENT FOR NON-ALCOHOLIC STEATOHEPATITIS-DERIVED HEPATOCARCINOMA” (SEAKNIT Biological Technology Co., Ltd., priority 2022, published 2025)
“Also recorded” adds a separate entry of the source.

Assays:
CD36 gene expression = test: Suppression effect of taxifolin on CD36 gene expression in the liver tissue of high-fat diet-induced model mice (real-time PCR); type: in vivo, mouse; settings: C57BL/6J male mice, corrected by GAPDH
Source text: In Test Example 1, the taxifolin's action on the CD36 gene expression in the liver tissue was studied using the high-fat diet-induced model mice.
The C57BL/6J male mice (7 weeks old: CLEA Japan, Inc.) were acclimated for one week with a normal solid diet (MF: Oriental Yeast Co., Ltd.) and with freely available drinking water.
The 8 weeks old mice after the acclimation were divided into 4 groups with 5 mice each, namely, the group of those raised with a normal solid diet for 12 weeks until 20 weeks old (hereinafter, “ND Group”), the group raised with a high fat diet (HFD-60 (506 kcal/100 g; 60% fat content in terms of energy rate): Oriental Yeast Co., Ltd.) (hereinafter, “HFD Group”), the group raised with the high fat diet containing 1% by weight of taxifolin (hereinafter, “HFD+1% TX-administered Group”), and the group raised with the high fat diet containing 3% by weight of taxifolin (hereinafter, “HFD+3% TX-administered Group”).
The mice raised until 20 weeks old were anesthetized with ether, and after they were euthanized by cervical dislocation, the liver of each individual was removed. […]
The mRNA expression amount of CD36 was corrected by the expression amount of glyceraldehyde-3-phosphate dehydrogenase (GAPDH), and this was comparatively quantified using the ΔΔCt method. […]

MC4R deficient mouse = test: Prophylactic effect of taxifolin on hepatocarcinoma in MC4R deficient mouse loaded with a high fat diet; type: in vivo; settings: high fat diet containing 3% of taxifolin from 20 to 50 weeks old, vs reference group
Source text: In Test Example 3, the taxifolin's action on the hepatocarcinoma by using the melanocortin-4 receptor deficient mouse (hereinafter, “MC4R deficient mouse”) loaded with a high fat diet. On the basis of the description in JP 2020-065454 A and JP 2017-006022 A, the MC4R deficient mouse provided by Joel K. Elmquist at the Medical Center in Texas University was used (Cell, 2005; 123(3): 493-505). The genetic background of the MC4R deficient mouse is the C57BL/6J mouse. These mice were kept under the controlled condition of temperature, humidity, and lighting time (12 hours cycle of dark and bright), unless otherwise specifically noted. After weaning (4 weeks after the birth), they were raised with a high fat diet (D12492 (524 kcal/100 g; 60% fat content in terms of energy rate); Research Diets, Inc.) and with freely available drinking water. All the MC4R mice loaded with the high fat diet had the NASH-like symptom by 20 weeks old; it has been known that they develop hepatocarcinoma thereafter (Am. J. Pathol., 2011; 179(5):2454-2463). The MC4R deficient 20 weeks old mice loaded with the high fat diet were divided into two groups; the reference group (n=13) that is continued to be fed with the same high fat diet until 50 weeks old, and the taxifolin-administered group (n=12) that is fed with the high fat diet containing 3% of taxifolin. The mice raised until 50 weeks old were euthanized by deep anesthesia using three mixed anesthetic agents, and then, the liver of each individual was removed. The number of the precancerous symptoms (Foci) in the removed liver, the number of the tumors having the precancerous symptom clustered, and the size of the tumor were measured. The statistical analysis was conducted using Student t-test. In FIG. 3, the number of the precancerous symptoms, the number of the tumors having the precancerous symptom clustered, and the size of the tumor are expressed by the average value of each group±standard error.

HepG2 cell = test: Taxifolin's suppressing action on fatty acid capturing in HepG2 cells (Oil Red O lipid droplet staining); type: cell-based, human; settings: 24 hours; for capturing amount of palmitic acid by the HepG2 cells: 400 μm palmitic acid, vs Group B without taxifolin
Procedure: In Test example 2, the taxifolin's action on fatty acid capturing was studied by using the HepG2 cell, which is the cell strain derived from human hepatocarcinoma.
The HepG2 cells were inoculated with the density of 0.2×10^6 cells/well on the plate having 24 wells, and they were cultured using the 10% FBS-containing DMEM medium until the HepG2 cells covered 70 to 80% of the surface in the culture vessel. The HepG2 cells cultured in the culture medium were washed with the phosphate buffer (PBS), then cultured for 24 hours in the serum-free medium containing 400 μm of palmitic acid, taxifolin with various concentrations, and 1% BSA, with n=6 in each Group A to E, as described in Table 2.
The glucose concentration contained in the culture medium and in the serum-free medium were made 0%, 0.1% (low glucose), or 0.45% (high glucose).
The HepG2 cells that had been cultured in the serum-free medium for 24 hours were immobilized by 4% paraformaldehyde after washing with PBS. The resulting immobilized HepG2 cells were treated with 60% isopropanol, and then the lipid drops in the cells were stained using Oil Red O (Wako Pure Chemical Industries, Ltd.). Thereafter, it was washed with 60% isopropanol and then with PBS. The resulting washed HepG2 cells were treated with 100% isopropanol to elute the Oil Red O out. The resulting eluted Oil Red O was recovered in the plate with 96 wells, and then the absorbance (550 nm) was measured using the microplate reader (Multiscan SkyHigh; Thermo Fisher Scientific, Inc.).
The statistical analysis was conducted using Student t-test.
In FIG. 2, the capturing amount of the fatty acid is expressed by the average value of each group±standard error.
FIG. 2 indicates the capturing amount of the fatty acid in the HepG2 cells in each Group. The capturing amount in the HepG2 cells in each Group A to E is expressed by the percentage relative to Group A.

Structure (SMILES): O=C1c2c(O)cc(O)cc2O[C@H](c2ccc(O)c(O)c2)[C@H]1O [taxifolin]
- mRNA expression amount of CD36 in the liver tissue (CD36 gene expression; high fat diet containing 1% by weight of taxifolin for 12 weeks (HFD+1% TX-administered Group) vs HFD Group): significantly decreased
- mRNA expression amount of CD36 in the liver tissue (CD36 gene expression; high fat diet containing 3% by weight of taxifolin for 12 weeks (HFD+3% TX-administered Group) vs HFD Group): significantly decreased; also recorded: suppressed to the same level as the ND Group
- number of the precancerous symptoms (Foci) in the liver (MC4R deficient mouse): decreased drastically
- number of the tumors having the precancerous symptom clustered (MC4R deficient mouse): decreased drastically
- size of the tumor between 1 and 5 mm (MC4R deficient mouse): decreased significantly
- concentration at which taxifolin suppressed the fatty acid capturing in the liver cells (HepG2 cell; HepG2 cells, palmitic acid, lowest concentration tested): 0.1 nM
- capturing amount of palmitic acid by the HepG2 cells (HepG2 cell; high glucose (0.45%), taxifolin 0.1 nM to 1 μM): same tendency
- capturing amount of palmitic acid by the HepG2 cells (HepG2 cell; low glucose (0.1%), taxifolin 0.1 nM or more): significantly decreased
